Assay results: patent US20260083704A1, “LXR MODULATORS WITH BICYCLIC CORE MOIETY FOR TREATING DYSLIPIDEMIAS” (OrsoBio, Inc., priority 2022, published 2026)

Columns and labels:
[1] = target: T1, GST-LXRβ ligand-binding domain (Homo sapiens, UniProt P55055); assay: TR-FRETβ activity assay (NCoA3 coactivator peptide recruitment); type: biochemical; conditions: 1 μM 24(S)-25-epoxycholesterol prestimulation
T1 construct: amino acids 156-461; NP009052; made in house; host or cells: E. coli
T1 sequence (P55055 156-460 limits assumed): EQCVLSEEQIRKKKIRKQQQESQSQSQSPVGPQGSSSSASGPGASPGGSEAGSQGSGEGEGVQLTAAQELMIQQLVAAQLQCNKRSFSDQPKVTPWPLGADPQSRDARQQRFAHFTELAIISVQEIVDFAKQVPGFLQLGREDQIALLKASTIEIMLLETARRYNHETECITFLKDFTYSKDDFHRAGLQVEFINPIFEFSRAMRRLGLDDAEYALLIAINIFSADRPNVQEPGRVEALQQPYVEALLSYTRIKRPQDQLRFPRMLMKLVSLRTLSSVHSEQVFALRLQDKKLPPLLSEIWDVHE
Method in brief: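 E. coli-expressed GST-LXRβ LBD (aa 156-461, 76 nM) with biotinylated NCoA3 peptide (400 nM) in Tris/HCl pH 6.8 containing 1 μM 24(S)-25-epoxycholesterol agonist. Compounds tested at 50 μM down to 0.002 μM in triplicate. TR-FRET (Tb cryptate/XL665, ex 340, em 615/665 nm) read after 1 h at 4° C.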

LXRβ = target: T2, LXRβ (Homo sapiens, UniProt P55055); assay: LXR Gal4 reporter transient transfection assay (mammalian two-hybrid, HEK293), LXRβ; type: cell-based; conditions: ligand-binding domain (LBD) of LXRβ, HEK293; read-out: LBD-M2H Gal4β
T2 construct: LXRβ (amino acids 156-461); expressed in transfected cells; host or cells: HEK293
T2 sequence (P55055 156-460): T1 sequence (P55055 156-460 limits assumed)
Method in brief: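 HEK293 cells transiently co-transfected with full-length or LBD LXRα/LXRβ fused to NFkB activation domain, GAL4-DBD-fused SRC1 or NCoR cofactor domain, GAL4-responsive firefly luciferase reporter and Renilla control. Compound added 4 h post-transfection (≤0.2% DMSO), incubated 16 h; firefly and Renilla luminescence read sequentially.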

LXRα = target: T3, LXRα (Homo sapiens, UniProt Q13133); assay: LXR Gal4 reporter transient transfection assay (mammalian two-hybrid, HEK293), LXRα; type: cell-based; conditions: ligand-binding domain (LBD) of LXRα, HEK293; read-out: LBD-M2H Gal4α
T3 construct: expressed in transfected cells; host or cells: HEK293
T3 sequence (Q13133 155-447): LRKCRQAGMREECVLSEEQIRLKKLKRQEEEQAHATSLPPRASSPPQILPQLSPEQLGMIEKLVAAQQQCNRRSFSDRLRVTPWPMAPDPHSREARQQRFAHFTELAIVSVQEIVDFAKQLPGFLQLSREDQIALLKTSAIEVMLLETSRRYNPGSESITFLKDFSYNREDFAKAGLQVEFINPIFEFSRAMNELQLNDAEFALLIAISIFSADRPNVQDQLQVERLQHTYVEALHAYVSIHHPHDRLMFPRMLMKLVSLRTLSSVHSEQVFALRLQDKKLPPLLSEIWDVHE
Description: LXRα and LXRβ activity status was determined via detection of interaction with coactivator and corepressor proteins in mammalian two-hybrid experiments (M2H). For this, via transient transfection the full length (FL) proteins of LXRα (amino acids 1-447; NP005684; SEQ ID NO:1) or LXRβ-(amino acids 1-461; NP009052; SEQ ID NO:2) or the ligand-binding domains (LBD) of LXRα (amino acids 155-447 SEQ ID NO:3) or LXRβ (amino acids 156-461; SEQ ID NO:4) were expressed from pCMV-AD (Stratagene) as fusions to the transcriptional activation domain of NFkB. As cofactors, domains of either the steroid receptor coactivator 1 (SRC1; amino acids 552-887; SEQ ID NO:5) or of the corepressor NCoR (amino acids 1906-2312; NP006302; SEQ ID NO:6) were expressed as fusions to the DNA binding domain of the yeast transcription factor GAL4 (from pCMV-BD; Stratagene). Interaction was monitored via activation of a coexpressed Firefly Luciferase Reporter gene under control of a promoter containing repetitive GAL4 response elements (vector pFRLuc; Stratagene). Transfection efficiency was controlled via cotransfection of constitutively active pRL-CMV Renilla reniformis luciferase reporter (Promega). HEK293 cells were grown in minimum essential medium (MEM) with 2 mM L-glutamine and Earle's balanced salt solution supplemented with 8.3% fetal bovine serum, 0.1 mM non-essential amino acids, 1 mM sodium pyruvate, at 37° C. in 5% CO2. 3.5×10^4 cells/well were plated in 96-well cell culture plates in growth medium supplemented with 8.3% fetal bovine serum for 16-20 h to ˜90% confluency. For transfection, medium was taken off and LXR and cofactor expressing plasmids as well as the reporter plasmids are added in 30 μL OPTIMEM/well including polyethylene-imine (PEI) as vehicle. Typical amounts of plasmids transfected/well: pCMV-AD-LXR (5 ng), pCMV-BD-cofactor (5 ng), pFR-Luc (100 ng), pRL-CMV (0.5 ng). Compound stocks were prepared in DMSO, prediluted in MEM to a total volume of 120 μL, and added 4 h after addition of the transfection mixture (final vehicle concentration not exceeding 0.2%). Cells were incubated for additional 16 h, lysed for 10 min in 1×Passive Lysis Buffer (Promega) and Firefly and Renilla luciferase activities were measured sequentially in the same cell extract using buffers containing D-luciferine and coelenterazine, respectively. Measurements of luminescence were done in a BMG-luminometer.
The potencies of Compound 21/3 and its analog, Compound pre-6/3, against LXRα and LXRβ were evaluated in biochemical binding assays, cellular mammalian two-hybrid (M2H) interaction assays evaluating nuclear receptor co-repressor (NCOR) recruitment, and cellular reporter assays evaluating transcriptional activity (Table 5).

SMILES: N#Cc1sccc1-c1c(-c2cccs2)n(S(=O)(=O)c2ccc(Cl)cc2)c2ccc(C(=O)O)cc12 [Compound 23]
- EC50 [1]: > 10000 nM
- EC50 (LXRβ): 100 to 1000 nM
- EC50 (LXRα): 100 to 1000 nM

SMILES: N#Cc1sccc1-c1c(-c2cncs2)n(S(=O)(=O)c2ccc(Cl)cc2)c2ccccc12 [Compound 25]
- EC50 [1]: 1000 to 10000 nM
- EC50 (LXRβ): < 100 nM
- EC50 (LXRα): 100 to 1000 nM

SMILES: COc1ccc(S(=O)(=O)n2c(-c3ccc(CCC(N)=O)cc3)c(-c3ccsc3C#N)c3ccccc32)cc1 [Compound 28]
- EC50 [1]: 1000 to 10000 nM
- EC50 (LXRβ): 100 to 1000 nM
- EC50 (LXRα): 1000 to 10000 nM

SMILES: Cc1ccc(S(=O)(=O)n2c(-c3cccc(C4CC4C(=O)O)c3)c(-c3ccsc3C#N)c3ccccc32)cc1 (stereo not drawn) [Compound 30]
- EC50 [1]: 100 to 1000 nM
- EC50 (LXRβ): < 100 nM
- EC50 (LXRα): < 100 nM

SMILES: Cc1ccc(S(=O)(=O)n2c(-c3cccc(-c4cccc(C(=O)NS(C)(=O)=O)c4)c3)c(-c3ccsc3C#N)c3ccccc32)cc1 [Compound 32]
- EC50 [1]: 100 to 1000 nM
- EC50 (LXRβ): 100 to 1000 nM
- EC50 (LXRα): 100 to 1000 nM
